The values below come from the supplement of paper PMC10307832.

Holding throughout (assay): relative viability (nuclei count vs DMSO), 5 days (fraction); higher = more cells survive
Compound in assay [1]: CC(C)C[C@@H](C(=O)N[C@H](C(=O)OC1CCCC1)c1ccccc1)[C@H](O)C(=O)NO [Tosedostat] + CS(=O)(=O)CCNCc1ccc(-c2ccc3ncnc(Nc4ccc(OCc5cccc(F)c5)c(Cl)c4)c3c2)o1 [Lapatinib] (partner 2 µM)
The method, boiled down:
(§1)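 Dosing by pin tool came one day after lung cancer cell lines were seeded in 1536-well plates, using either one drug or a fixed anchor-drug dose plus five library-drug doses (not always all listed) in √10 steps. After 5 days, nuclei were counted on 4× images. Relative viability is treated-well nuclei count divided by vehicle-well nuclei count, and values are medians of duplicate plates.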

Compound in assay [2]: CC1=NN=C(O1)C2=NN=C(C=C2)N3CCC(CC3)OC4=C(C=CC(=C4)F)Cl + Nc1ncn([C@H]2C[C@H](O)[C@@H](CO)O2)c(=O)n1 [Decitabine] (partner 2 µM)
An outline of the steps:
as §1

Compound in assay [3]: CC1=NN=C(O1)C2=NN=C(C=C2)N3CCC(CC3)OC4=C(C=CC(=C4)F)Cl + Cc1cc(Nc2cc(N3CCN(C)CC3)nc(Sc3ccc(NC(=O)C4CC4)cc3)n2)n[nH]1 [Tozasertib] (partner 0.1 µM)
An outline of the steps:
as §1

Compound in assay [4]: CC(C)C[C@@H](C(=O)N[C@H](C(=O)OC1CCCC1)c1ccccc1)[C@H](O)C(=O)NO [Tosedostat] + C[C@]1(O)C[C@@H](c2nc(-c3ccc4ccc(-c5ccccc5)nc4c3)c3c(N)nccn32)C1 [Linsitinib] (partner 1 µM)
The method, boiled down:
as §1

As for UMC-11, the relative viability in assay [1] (first compound 0.02 µM) was determined as 1.05; in assay [1] (first compound 0.06325 µM), 1.01; in assay [1] (first compound 0.2 µM), 0.957; in assay [1] (first compound 0.6325 µM), 1.19; in assay [1] (first compound 2 µM) it was 0.96; in assay [2] (first compound 0.253 µM), 0.517. The relative viability in assay [2] (first compound 0.8 µM) was determined as 0.517; in assay [2] (first compound 2.53 µM) it was 0.507; in assay [2] (first compound 8 µM), 0.466; in assay [3] (first compound 0.253 µM), 0.181; in assay [3] (first compound 0.8 µM), 0.184; in assay [3] (first compound 2.53 µM) it was 0.192. The relative viability in assay [3] (first compound 8 µM) was determined as 0.169; in assay [4] (first compound 0.02 µM) it was 0.995; in assay [4] (first compound 0.06325 µM), 1.08; in assay [4] (first compound 0.2 µM), 0.951; in assay [4] (first compound 0.6325 µM) it was 0.898; in assay [4] (first compound 2 µM), 0.976.
